Data taken from ChEMBL document CHEMBL4028801, “A multifactorial approach to hepatobiliary transporter assessment enables improved therapeutic compound development” (Toxicol Sci, 2013).
pIC50: −log10 of the molar value. Counter-ions that a name gives are not always drawn.

Assays:
Bile salt export pump = Bile salt export pump (Homo sapiens, UniProt O95342); assay: Inhibition of human BSEP overexpressed in Sf9 cell membrane vesicles assessed as uptake of [3H]-taurocholate in presence of ATP measured after 15 to 20 mins by membrane vesicle transport assay; format: ADME, cell-based
[1] = target: ATP-binding cassette sub-family C member 2 (Homo sapiens, UniProt Q92887); assay: Inhibition of human MRP2 overexpressed in Sf9 cell membrane vesicles assessed as uptake of [3H]-estradiol-17beta-D-glucuronide in presence of ATP and GSH measured after 20 mins by membrane vesicle transport assay
[2] = target: ATP-binding cassette sub-family C member 3 (Homo sapiens, UniProt O15438); assay: Inhibition of human MRP3 overexpressed in Sf9 insect cell membrane vesicles assessed as uptake of [3H]-estradiol-17beta-D-glucuronide in presence of ATP and GSH measured after 10 mins by membrane vesicle transport assay; format: ADME, cell-based
[3] = target: T1, ATP-binding cassette sub-family C member 4 (Homo sapiens, UniProt O15439); assay: Inhibition of human MRP4 overexpressed in Sf9 cell membrane vesicles assessed as uptake of [3H]-estradiol-17beta-D-glucuronide in presence of ATP and GSH measured after 20 mins by membrane vesicle transport assay; format: ADME, cell-based
T1 sequence (O15439 whole entry): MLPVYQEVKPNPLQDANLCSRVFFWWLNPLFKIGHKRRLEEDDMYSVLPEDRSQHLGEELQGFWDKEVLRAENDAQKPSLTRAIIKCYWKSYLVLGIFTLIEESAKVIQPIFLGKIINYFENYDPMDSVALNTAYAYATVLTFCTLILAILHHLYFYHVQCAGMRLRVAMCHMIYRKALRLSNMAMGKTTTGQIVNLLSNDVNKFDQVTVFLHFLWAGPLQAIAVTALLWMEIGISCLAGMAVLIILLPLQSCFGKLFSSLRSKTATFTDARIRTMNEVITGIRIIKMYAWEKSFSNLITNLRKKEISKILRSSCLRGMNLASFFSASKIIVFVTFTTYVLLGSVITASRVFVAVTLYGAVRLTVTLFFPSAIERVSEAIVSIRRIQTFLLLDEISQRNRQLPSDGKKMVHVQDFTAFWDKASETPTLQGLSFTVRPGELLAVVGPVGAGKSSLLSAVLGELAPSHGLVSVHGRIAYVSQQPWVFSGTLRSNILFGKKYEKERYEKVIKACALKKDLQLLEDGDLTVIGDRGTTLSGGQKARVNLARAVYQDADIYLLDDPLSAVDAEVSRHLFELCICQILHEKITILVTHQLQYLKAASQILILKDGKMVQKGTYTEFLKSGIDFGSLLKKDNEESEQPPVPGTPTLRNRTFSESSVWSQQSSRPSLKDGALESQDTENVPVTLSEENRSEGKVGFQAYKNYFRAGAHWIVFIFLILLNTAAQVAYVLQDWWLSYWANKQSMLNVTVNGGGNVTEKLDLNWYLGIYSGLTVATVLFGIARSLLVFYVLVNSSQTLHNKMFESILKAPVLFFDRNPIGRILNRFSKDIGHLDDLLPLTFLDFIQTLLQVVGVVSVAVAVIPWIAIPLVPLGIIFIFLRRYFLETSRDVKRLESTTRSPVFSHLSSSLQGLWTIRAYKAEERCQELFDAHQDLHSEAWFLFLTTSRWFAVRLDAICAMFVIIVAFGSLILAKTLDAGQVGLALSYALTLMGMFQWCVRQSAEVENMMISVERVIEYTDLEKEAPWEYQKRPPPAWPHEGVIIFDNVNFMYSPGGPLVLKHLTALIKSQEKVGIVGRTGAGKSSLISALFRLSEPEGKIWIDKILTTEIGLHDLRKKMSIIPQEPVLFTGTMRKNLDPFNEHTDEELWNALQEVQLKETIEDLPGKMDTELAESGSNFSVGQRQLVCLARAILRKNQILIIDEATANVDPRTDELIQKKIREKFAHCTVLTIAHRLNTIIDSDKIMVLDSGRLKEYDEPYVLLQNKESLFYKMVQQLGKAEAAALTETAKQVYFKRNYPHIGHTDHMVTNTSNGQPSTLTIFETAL

Chain of ATP-binding cassette sub-family C member 2 (Q92887 whole entry): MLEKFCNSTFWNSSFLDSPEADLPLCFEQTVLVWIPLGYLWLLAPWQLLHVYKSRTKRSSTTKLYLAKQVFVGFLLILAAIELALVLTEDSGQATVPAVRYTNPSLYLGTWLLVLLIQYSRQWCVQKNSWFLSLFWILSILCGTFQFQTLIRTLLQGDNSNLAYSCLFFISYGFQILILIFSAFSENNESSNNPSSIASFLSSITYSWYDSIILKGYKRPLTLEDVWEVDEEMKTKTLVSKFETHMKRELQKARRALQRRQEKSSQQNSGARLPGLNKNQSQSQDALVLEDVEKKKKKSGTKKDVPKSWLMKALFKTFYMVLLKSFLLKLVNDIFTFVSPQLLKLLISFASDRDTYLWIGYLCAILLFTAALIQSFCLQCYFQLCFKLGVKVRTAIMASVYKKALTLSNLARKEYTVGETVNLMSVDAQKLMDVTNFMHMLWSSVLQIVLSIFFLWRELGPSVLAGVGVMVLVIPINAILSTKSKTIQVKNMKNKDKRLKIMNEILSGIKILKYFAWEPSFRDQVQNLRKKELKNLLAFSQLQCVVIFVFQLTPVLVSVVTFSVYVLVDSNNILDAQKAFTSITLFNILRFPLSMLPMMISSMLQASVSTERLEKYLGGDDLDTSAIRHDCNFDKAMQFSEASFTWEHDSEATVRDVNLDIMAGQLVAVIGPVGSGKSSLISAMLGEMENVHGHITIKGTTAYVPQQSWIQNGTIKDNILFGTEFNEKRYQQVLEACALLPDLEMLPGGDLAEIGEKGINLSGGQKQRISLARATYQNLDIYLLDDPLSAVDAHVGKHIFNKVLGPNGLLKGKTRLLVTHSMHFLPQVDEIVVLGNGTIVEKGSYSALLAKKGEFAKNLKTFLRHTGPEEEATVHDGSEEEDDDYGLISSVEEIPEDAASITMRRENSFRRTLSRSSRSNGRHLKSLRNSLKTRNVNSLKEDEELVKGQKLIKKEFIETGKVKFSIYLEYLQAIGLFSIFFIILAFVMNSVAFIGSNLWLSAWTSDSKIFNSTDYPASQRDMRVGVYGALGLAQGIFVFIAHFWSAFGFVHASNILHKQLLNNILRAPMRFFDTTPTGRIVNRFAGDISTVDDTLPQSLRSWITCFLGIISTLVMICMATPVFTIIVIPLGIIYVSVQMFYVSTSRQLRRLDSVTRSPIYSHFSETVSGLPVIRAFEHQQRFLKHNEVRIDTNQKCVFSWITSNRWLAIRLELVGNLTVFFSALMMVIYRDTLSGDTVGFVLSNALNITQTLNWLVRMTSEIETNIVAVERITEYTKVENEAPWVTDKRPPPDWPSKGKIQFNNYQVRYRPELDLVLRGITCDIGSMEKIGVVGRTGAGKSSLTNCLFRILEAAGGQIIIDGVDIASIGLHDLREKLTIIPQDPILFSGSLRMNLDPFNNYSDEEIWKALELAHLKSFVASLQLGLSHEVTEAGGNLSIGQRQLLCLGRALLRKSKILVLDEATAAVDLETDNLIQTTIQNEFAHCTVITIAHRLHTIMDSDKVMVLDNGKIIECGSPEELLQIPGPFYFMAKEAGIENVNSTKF
Chain of Bile salt export pump (O95342 whole entry): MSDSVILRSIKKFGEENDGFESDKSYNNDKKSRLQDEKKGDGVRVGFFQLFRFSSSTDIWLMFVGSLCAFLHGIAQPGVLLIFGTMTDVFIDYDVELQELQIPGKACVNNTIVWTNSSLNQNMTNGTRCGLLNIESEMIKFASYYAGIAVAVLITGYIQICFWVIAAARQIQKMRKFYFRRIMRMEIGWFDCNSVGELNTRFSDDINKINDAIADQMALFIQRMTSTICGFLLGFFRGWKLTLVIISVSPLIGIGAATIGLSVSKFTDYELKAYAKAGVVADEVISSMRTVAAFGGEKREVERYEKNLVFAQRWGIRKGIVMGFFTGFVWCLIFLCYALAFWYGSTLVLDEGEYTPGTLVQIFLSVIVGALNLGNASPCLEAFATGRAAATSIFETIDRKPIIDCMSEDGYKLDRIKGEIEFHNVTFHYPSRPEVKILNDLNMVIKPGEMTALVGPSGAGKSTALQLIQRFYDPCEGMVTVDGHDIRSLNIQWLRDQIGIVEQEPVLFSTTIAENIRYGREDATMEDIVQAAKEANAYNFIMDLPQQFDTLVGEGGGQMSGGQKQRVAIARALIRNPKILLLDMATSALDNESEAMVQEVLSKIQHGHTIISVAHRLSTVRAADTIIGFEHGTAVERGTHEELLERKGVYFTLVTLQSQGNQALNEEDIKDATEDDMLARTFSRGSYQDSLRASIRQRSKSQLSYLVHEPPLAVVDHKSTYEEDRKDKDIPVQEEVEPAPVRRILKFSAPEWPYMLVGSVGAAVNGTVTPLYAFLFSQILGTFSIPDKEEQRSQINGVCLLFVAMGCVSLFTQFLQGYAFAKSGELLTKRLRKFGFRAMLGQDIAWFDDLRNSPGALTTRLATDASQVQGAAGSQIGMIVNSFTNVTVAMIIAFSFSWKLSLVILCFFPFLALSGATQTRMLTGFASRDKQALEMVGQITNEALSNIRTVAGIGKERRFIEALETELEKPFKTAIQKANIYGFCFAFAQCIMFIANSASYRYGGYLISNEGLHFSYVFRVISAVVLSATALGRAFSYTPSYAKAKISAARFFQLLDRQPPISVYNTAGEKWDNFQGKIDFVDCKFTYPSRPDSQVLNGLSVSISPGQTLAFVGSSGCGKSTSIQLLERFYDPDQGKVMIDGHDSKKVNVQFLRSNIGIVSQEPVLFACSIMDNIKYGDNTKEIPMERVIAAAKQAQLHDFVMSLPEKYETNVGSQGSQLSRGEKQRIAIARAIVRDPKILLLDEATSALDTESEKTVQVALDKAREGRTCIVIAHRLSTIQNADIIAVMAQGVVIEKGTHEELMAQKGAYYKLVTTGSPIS
Chain of ATP-binding cassette sub-family C member 3 (O15438 whole entry): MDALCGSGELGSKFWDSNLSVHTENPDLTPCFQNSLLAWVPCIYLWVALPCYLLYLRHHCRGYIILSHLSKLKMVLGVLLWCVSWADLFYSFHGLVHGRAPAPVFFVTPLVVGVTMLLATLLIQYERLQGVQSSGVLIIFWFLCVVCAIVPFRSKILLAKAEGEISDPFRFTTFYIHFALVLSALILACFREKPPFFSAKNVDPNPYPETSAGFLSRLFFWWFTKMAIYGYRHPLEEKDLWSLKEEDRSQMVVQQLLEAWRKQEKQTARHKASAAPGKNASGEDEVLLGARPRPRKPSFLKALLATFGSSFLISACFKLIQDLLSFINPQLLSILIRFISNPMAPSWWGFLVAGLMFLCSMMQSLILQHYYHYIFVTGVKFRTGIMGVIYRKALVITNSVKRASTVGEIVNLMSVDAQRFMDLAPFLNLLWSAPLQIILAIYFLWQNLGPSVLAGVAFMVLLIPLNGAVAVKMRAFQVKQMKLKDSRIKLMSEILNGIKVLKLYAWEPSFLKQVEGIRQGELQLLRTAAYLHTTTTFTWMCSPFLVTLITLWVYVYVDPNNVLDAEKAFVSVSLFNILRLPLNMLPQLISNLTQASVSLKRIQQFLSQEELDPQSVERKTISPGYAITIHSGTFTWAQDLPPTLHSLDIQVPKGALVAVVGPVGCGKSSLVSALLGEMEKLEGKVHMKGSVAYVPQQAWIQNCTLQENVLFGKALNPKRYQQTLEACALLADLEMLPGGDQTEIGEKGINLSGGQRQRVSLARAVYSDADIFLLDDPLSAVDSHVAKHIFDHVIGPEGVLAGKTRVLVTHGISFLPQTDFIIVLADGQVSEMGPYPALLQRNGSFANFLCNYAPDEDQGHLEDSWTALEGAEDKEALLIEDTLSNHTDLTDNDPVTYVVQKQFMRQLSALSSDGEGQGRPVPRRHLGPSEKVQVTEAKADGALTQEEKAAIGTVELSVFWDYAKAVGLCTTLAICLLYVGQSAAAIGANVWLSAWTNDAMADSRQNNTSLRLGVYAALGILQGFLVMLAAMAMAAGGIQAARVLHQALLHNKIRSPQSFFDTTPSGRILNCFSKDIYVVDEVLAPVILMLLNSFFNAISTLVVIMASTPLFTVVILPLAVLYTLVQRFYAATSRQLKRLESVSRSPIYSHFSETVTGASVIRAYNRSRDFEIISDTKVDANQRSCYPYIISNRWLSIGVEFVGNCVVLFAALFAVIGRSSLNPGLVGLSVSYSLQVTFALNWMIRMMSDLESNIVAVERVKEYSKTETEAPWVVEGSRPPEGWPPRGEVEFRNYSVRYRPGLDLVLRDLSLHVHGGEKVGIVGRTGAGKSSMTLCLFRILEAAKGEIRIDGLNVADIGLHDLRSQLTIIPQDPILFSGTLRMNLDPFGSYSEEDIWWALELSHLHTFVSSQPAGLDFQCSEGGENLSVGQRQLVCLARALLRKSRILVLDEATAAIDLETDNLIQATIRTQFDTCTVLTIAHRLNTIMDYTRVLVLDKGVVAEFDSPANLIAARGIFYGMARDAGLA

| SMILES | pIC50 (Bile salt export pump) | pIC50 [1] | pIC50 [2] | pIC50 [3] |
| --- | --- | --- | --- | --- |
| O=C(O)CCC/C=C\CC1C(O)CC(O)C1/C=C/C(O)COc1cccc(Cl)c1 (stereo not drawn) [CLOPROSTENOL SODIUM] | < 3.88 | < 3.88 | < 3.88 | 5.72 |
| NCCCC(N)(C(=O)O)C(F)F (stereo not drawn) [EFLORNITHINE HYDROCHLORIDE] | < 3.88 | < 3.88 | < 3.88 | < 3.88 |
| O=C(NC[C@H]1CN(c2ccc(N3CCOCC3=O)cc2)C(=O)O1)c1ccc(Cl)s1 [RIVAROXABAN] | < 3.88 | < 3.88 | < 3.88 | < 3.88 |
| O=P1(N(CCCl)CCCl)NCCCO1 (stereo not drawn) [CYCLOPHOSPHAMIDE ANHYDROUS] | < 3.88 | < 3.88 | < 3.88 | < 3.88 |
| NS(=O)(=O)c1cc2c(cc1C(F)(F)F)NCNS2(=O)=O [HYDROFLUMETHIAZIDE] | < 3.88 | < 3.88 | < 3.88 | < 3.88 |
| C[C@H]1C[C@@H]2[C@H]([C@@H](O)C[C@@]3(C)[C@H]2CC[C@]3(O)C(=O)CO)[C@@]2(C)C=CC(=O)C=C12 [METHYLPREDNISOLONE] | < 3.88 | < 3.88 | < 3.88 | 4.39 |
| O=C(O)CCNC(=O)c1ccccc1 [BETAMIPRON] | < 3.88 | < 3.88 | < 3.88 | < 3.88 |
| Nc1nc2c(c(=O)[nH]1)N(C=O)C(CNc1ccc(C(=O)N[C@@H](CCC(=O)O)C(=O)O)cc1)CN2 (stereo partly drawn) [LEUCOVORIN CALCIUM] | < 3.88 | < 3.88 | < 3.88 | < 3.88 |
| CN1C(=O)CC(=O)N(c2ccccc2)c2cc(Cl)ccc21 [CLOBAZAM] | < 3.88 | < 3.88 | < 3.88 | < 3.88 |
| CC(=O)NC[C@H]1CN(c2ccc(N3CCOCC3)c(F)c2)C(=O)O1 [LINEZOLID] | < 3.88 | < 3.88 | < 3.88 | < 3.88 |
| CCN1CCCC1CNC(=O)c1cc(S(=O)(=O)CC)c(N)cc1OC (stereo not drawn) [AMISULPRIDE] | < 3.88 | < 3.88 | < 3.88 | < 3.88 |
| CC(C)C(=O)Oc1ccc(CO)cc1[C@H](CCN(C(C)C)C(C)C)c1ccccc1 [FESOTERODINE FUMARATE] | < 3.88 | < 3.88 | < 3.88 | < 3.88 |
